Patent US20160095855A1, “USE OF A POLYMORPH OF FLIBANSERIN FOR TREATING DISEASE” (Sprout Pharmaceuticals, Inc., priority 2001, published 2016)

How the values were obtained:
[1] = stability under mechanical stress produced by grinding; assay type: physicochemical; conditions: solid state, crystalline modification of free base
[2] = system: 5-HT2-receptor; conditions: qualitative background statement; cited from earlier work
[3] = target: T1, 5-HT1A receptor (Homo sapiens, UniProt P08908); conditions: qualitative background statement; cited from earlier work
T1 sequence (P08908 1-422): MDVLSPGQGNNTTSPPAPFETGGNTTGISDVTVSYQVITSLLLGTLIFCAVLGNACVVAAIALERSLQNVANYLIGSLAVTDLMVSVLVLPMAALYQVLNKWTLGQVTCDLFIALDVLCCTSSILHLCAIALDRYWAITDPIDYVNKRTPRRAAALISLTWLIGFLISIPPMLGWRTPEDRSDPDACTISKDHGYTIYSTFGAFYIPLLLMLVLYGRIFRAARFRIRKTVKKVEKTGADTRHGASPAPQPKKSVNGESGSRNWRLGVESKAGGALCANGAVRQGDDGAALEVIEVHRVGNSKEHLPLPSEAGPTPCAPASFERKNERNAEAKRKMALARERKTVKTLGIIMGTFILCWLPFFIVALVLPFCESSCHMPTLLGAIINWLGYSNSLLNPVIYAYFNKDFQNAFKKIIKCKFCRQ

SMILES	stability under the effects of mechanical stress produced by grinding [1]	affinity for the 5-HT2-receptor [2]	affinity for the 5-HT1A receptor [3]
O=c1[nH]c2ccccc2n1CCN1CCN(c2cccc(C(F)(F)F)c2)CC1 [polymorph B, 1-[2-(4-(3-trifluoromethyl-phenyl)piperazin-1-yl)ethyl]-2,3-dihydro-1H-benzimidazol-2-one]	little stability		
O=c1[nH]c2ccccc2n1CCN1CCN(c2cccc(C(F)(F)F)c2)CC1 [polymorph A, 1-[2-(4-(3-trifluoromethyl-phenyl)piperazin-1-yl)ethyl]-2,3-dihydro-1H-benzimidazol-2-one]	fulfill the aforementioned stability requirements		
O=c1[nH]c2ccccc2n1CCN1CCN(c2cccc(C(F)(F)F)c2)CC1 [Flibanserin, 1-[2-(4-(3-trifluoromethyl-phenyl)piperazin-1-yl)ethyl]-2,3-dihydro-1H-benzimidazol-2-one]		shows affinity	shows affinity
